Assay results taken from patent US20100273651A1 (priority 2007, published 2010).
Where two headings read alike, the source gives them in different places.

What was measured:
[1] = system: Septoria tritici; experiment: Use example No. 3: activity against Septoria tritici in the microtiter test (Septtr); format: cell-based; details: relative growth vs active compound-free control (100%), 405 nm, day 7
[2] = system: Phakopsora pachyrhizi; experiment: Use Example 1: curative activity against soybean rust, greenhouse (Phakpa K1); format: in vivo; details: soybean seedlings sprayed 24 h after inoculation, visual rating after 14 days, untreated 90
Procedure: (§1) The active compounds were prepared separately or jointly as a stock solution comprising 25 mg of active compound which was made up to 10 ml using a mixture of acetone and/or DMSO and the emulsifier Uniperolt EL (wetting agent having emulsifying and dispersing action based on ethoxylated alkyl phenols) in a volume ratio of solvent/emulsifier of 99:1. The mixture was then made up to 100 ml with water. This stock solution was diluted with the solvent/emulsifier/water mixture described to give the concentration of active compounds stated below. Alternatively, the active compounds were used as a commercial finished formulation and diluted with water to the concentration of active compounds stated.
Leaves of potted soybean seedlings were inoculated with a spore suspension of soybean rust (Phakpsora pachyrhizi). The pots were then placed in a chamber with high atmospheric humidity (90 to 95%) and at 23 to 27° C. for 24 hours. During this time, the spores germinated and the germ tubes penetrated into the leaf tissue. The infected plants were then sprayed to runoff point with the active compound solution described above at the active compound concentration stated below. After the spray coating had dried on, the test plants were cultivated in a greenhouse at temperatures between 23 and 27° C. and 60 to 80% relative atmospheric humidity for 14 days. The extent of the rust fungus development on the leaves was then determined visually in percent infection.

[3] = system: Septoria tritici; experiment: Use Example 2: protective activity against Septoria leaf spot of wheat, greenhouse (Septtr P2); format: in vivo; details: wheat seedlings inoculated 2 days after spraying, % infection of total leaf area after 21 days, untreated 90
Procedure: as §1
Leaves of potted wheat seedlings were sprayed to runoff point with an aqueous suspension having the active compound concentration stated below. 2 days after the spray coating had dried on, they were inoculated with an aqueous spore suspension of Septoria tritici. The test plants were then placed in a greenhouse at temperatures between 20 and 24° C. and a relative atmospheric humidity close to 100% for 4 days and then at temperatures between 18 and 22° C. and an atmospheric humidity of about 70%. After 21 days, the extent of the development of the disease was determined visually in % infection of the total leaf area.

[4] = system: Pyricularia oryzae; format: cell-based
[5] = system: Leptno; experiment: Comparative experiments: growth of Leptno (microtest, method not described); format: cell-based; details: comparative experiments against prior-art compound
[6] = relative growth vs active compound-free control (100%), 405 nm, day 7
[7] = comparative experiments against prior-art compound

1,2-bis[1-rel-(2S,3R)-2-(2-chlorophenyl)-3-(2,4-dichlorophenyl)oxiran-2-ylmethyl-1H-1,2,4-triazole-5-yl]disulfane [Compound 14]
Growth in % at 31 ppm for Septtr [1]: 4%

1-[rel-(2S,3R)-2-(2-chlorophenyl)-3-(2,4-dichlorophenyl)oxiran-2-ylmethyl]-1H-1,2,4-triazole-5(4H-6-thione [Compound 2]
Infection in % at 150 ppm for Phakpa K1 [2]: 3%
Infection in % at 150 ppm for Septtr P2 [3]: 10%
Growth in % at 31 ppm for Pyrior [4, 6]: 5%

S=c1[nH]cnn1C[C@]1(c2ccccc2)O[C@@H]1c1ccc(Cl)c(Cl)c1Cl (relative stereo) [Compound 4, 1-[rel-(2S,3R)-2-phenyl-3-(2,3,4-trichlorophenyl)oxiran-2-ylmethyl]-1H-1,2,4-triazole-5(4H)-thione]
Infection in % at 150 ppm for Phakpa K1 [2]: 0%
Infection in % at 150 ppm for Septtr P2 [3]: 15%

CSc1ncnn1C[C@]1(c2ccccc2Cl)O[C@@H]1c1ccc(Cl)cc1Cl (relative stereo) [Compound 5, 1-[rel-(2S,3R)-2-(2-chlorophenyl)-3-(2,4-dichlorophenyl)oxiran-2-ylmethyl]-5-(methylthio)-1H-1,2,4-triazole]
Growth in % at 31 ppm for Septtr [1]: 0%
Growth in % at 31 ppm for Pyrior [4, 7]: 0%

CSc1ncnn1C[C@]1(c2ccc(F)cc2)O[C@@H]1c1cccc(Cl)c1F (relative stereo) [Compound 7, 1-[rel-(2S,3R)-3-(3-chloro-2-fluorophenyl)-2-(4-fluorophenyl)oxiran-2-ylmethyl]-5-(methylthio)-1,2,4-triazole]
Infection in % at 600 ppm for Phakpa K1 ([2]; 600 ppm): 0%

CS(=O)(=O)c1ncnn1C[C@]1(c2ccccc2Cl)O[C@@H]1c1ccc(Cl)cc1Cl (relative stereo) [Compound 8, 1-[rel-(2S,3R)-2-(2-chlorophenyl)-3-(2,4-dichlorophenyl)-oxiran-2-ylmethyl]-5-(methylsulfonyl)-1H-1,2,4-triazole]
Growth in % at 31 ppm for Pyrior [4, 6]: 8%

CC(=O)Sc1ncnn1C[C@]1(c2ccccc2Cl)O[C@@H]1c1ccc(Cl)cc1Cl (relative stereo) [Compound 9, S-1-[rel-(2S,3R)-2-(2-chlorophenyl)-3-(2,4-dichorophenyl)oxiran-2-ylmethyl]-1H-1,2,4-triazole-5-ylethanethioate]
Growth in % at 31 ppm for Pyrior [4, 6]: 1%

CC(=O)Sc1ncnn1C[C@]1(c2ccccc2)O[C@@H]1c1ccc(Cl)c(Cl)c1Cl (relative stereo) [Compound 10, S-1-[rel-(2S,3R)-2-phenyl)-3-(2,3,4-trichlorophenyl)oxiran-2-ylmethyl]-1H-1,2,4-triazole-5-yl ethanethioate]
Growth in % at 31 ppm for Septtr [1]: 5%

COC(=O)Sc1ncnn1C[C@]1(c2ccccc2Cl)O[C@@H]1c1ccc(Cl)cc1Cl (relative stereo) [Compound 11, S-{2-[2-(2-chlorophenyl)-3-(2,4-dichlorophenyl)oxiranylmethyl]-2H-[1,2,4]triazole-3-yl}methyl rel-(2S,3R)-thiocarbonate]
Growth in % at 31 ppm for Pyrior [4, 6]: 3%

N#CSc1ncnn1C[C@]1(c2ccccc2Cl)O[C@@H]1c1ccc(Cl)cc1Cl (relative stereo) [Compound 12, 1-[rel-(2S,3R)-2-(2-chlorophenyl)-3-(2,4-dichlorophenyl)oxiran-2-ylmethyl]-5-thlocyanato-1H-1,2,4-triazole]
Infection in % at 150 ppm for Phakpa K1 [2]: 0%
Infection in % at 150 ppm for Septtr P2 [3]: 10%

[Na+].[S-]c1ncnn1C[C@]1(c2ccccc2Cl)O[C@@H]1c1ccc(Cl)cc1Cl (relative stereo) [Compound 13, sodium rel-(2S,3R)-2-(2-chlorophenyl)-3-(2,4-dichlorophenyl)oxiran-2-ylethyl]-1H-[1,2,4]triazole-5-thiolate]
Growth in % at 31 ppm for Pyrior [4, 6]: 19%
Growth in % at 31 ppm for Leptno [5]: 19%

CSc1ncnn1C[C@]1(c2ccccc2Cl)O[C@@H]1c1ccccc1Cl [WO9638440, p. 14 (5th compound), reference compound]
Growth in % at 31 ppm for Pyrior [4, 7]: 83%

[Na+].[S-]c1ncnn1C[C@]1(c2ccccc2Cl)O[C@@H]1c1ccccc1Cl [WO9741107, p. 50 (5th compound), reference compound]
Growth in % at 31 ppm for Leptno [5]: 51%
